US10144738B2, “Pyrazolo[1,5-A]PYRAZIN-4-YL derivatives” (Pfizer Inc., priority 2016, dated 2018)

Legend:
JAK3 = JAK3 (Homo sapiens (Human), UniProt P52333); assay: JAK Caliper enzyme assay at 1 mM ATP (JAK3); format: biochemical; settings: recombinant human kinase domain, Caliper mobility shift
Method: (§1) Compounds of the invention were evaluated by in vitro methods to determine their respective ability to inhibit the JAK kinases (TYK2, JAK1, JAK2, JAK3).
(§2) The human JAK inhibitory activity was determined by using a microfluidic assay to monitor phosphorylation of a synthetic peptide by the recombinant human kinase domain of each of the four members of the JAK family, JAK1, JAK2, JAK3 and TYK2. […] Each assay condition was optimized for enzyme concentration and room temperature incubation time to obtain a conversion rate of 20% to 30% phosphorylated peptide product. Reactions were terminated by the addition of stop buffer containing EDTA. Utilizing the LabChip 3000 mobility shift technology (Caliper Life Science), each assay reaction was sampled to determine the level of phosphorylation. This technology is separation-based, allowing direct detection of fluorescently labeled substrates and products. Separations are controlled by a combination of vacuum pressure and electric field strength optimized for each peptide substrate.
(§3) JAK Caliper Enzyme Assay at 1 mM ATP
(§4) Compounds were added to a 384-well plate. Reaction mixtures contained 10 mM HEPES, pH 7.4, 10 mM MgCl2, 0.01% BSA, 0.0005% Tween 20, 1 mM ATP and 1 μM peptide substrate. […] The assays were initiated by the addition of 20 nM JAK1, 1 nM JAK2, 1 nM JAK or 1 nM TYK2 enzyme and were incubated at room temperature for three hours for JAK1, 60 minutes for JAK2, 75 minutes for JAK3 or 135 minutes for TYK2. Enzyme concentrations and incubation times were optimized for each new enzyme preps and were modified slightly over time to ensure 20% to 30% phosphorylation. The assays were stopped with 15 μL of 180 mM HEPES, pH 7.4, 20 mM EDTA, and 0.2% Coating Reagent 3. The assay plates were placed on a Caliper Life Science LC3000 instrument, and each well was sampled using appropriate separation conditions to measure the unphosphorylated and phosphorylated peptide.
(§5) The data was collected using the HTS Well Analyzer software from Caliper Life Sciences. The data output for data analysis is the percent product converted calculated on peak height (Equation 1). % product converted=100*((product)/(product+substrate)) Equation 1: […]
(§6) The percent effect at each compound concentration was calculated based on the positive and negative control well contained within each assay plate (Equation 2). […] The negative control wells contained DMSO alone (at the same concentration as the compound wells) that was used to set the baseline activity in the assay (i.e., uninhibited JAK1, JAK2, JAK3 or TYK2). % effect=100*((sample well−negative control)/(positive control-negative control)) Equation 2: The percent effect was plotted against the compound concentration compound.

[1] = tested on: IL-12 induced STAT4 phosphorylation (IL-12 signals through TYK2 and JAK2); assay: Human Whole Blood IL-12 Induced STAT4 Phosphorylation Assay; format: cell-based; settings: Lymphocyte, IL-12 5 ng/mL, pSTAT4 in lymphocytes by flow cytometry, read-out: HWB IL-12 IC50
Method: Selected compounds were assessed for their ability to inhibit IL-12 signaling in a human whole blood flow cytometry assay. IL-12 signals through TYK2 and JAK2. Human Whole Blood IL-12 Induced STAT4 Phosphorylation Assay
Test articles were prepared as 30 mM stocks in DMSO. An 11-point 2.5 dilution series was created in DMSO with a top concentration of 10 mM. Further dilution was done by adding 4 μL of the above test article solutions into 96 μL of PBS with a top concentration of 400 μM. […] Blood was warmed to 37° C. prior to use. Human whole blood was aliquoted ([…]) in 96-well, deep-well, V-bottom plates and treated with compounds at 11 different concentrations (0.2% DMSO final) at 37° C. for 60 minutes. This was followed by a challenge with IL-12 ([…]; final, 5 ng/mL) for 15 minutes. Samples were treated with warm 1× Lyse/Fix buffer ([…]) to terminate activation and further incubated at 37° C. for 20 minutes to lyse red blood cells. Plates were centrifuged at 300×g for 5 minutes, supernatant was aspirated, and cells were washed with […] of staining buffer (PBS containing 0.5% fetal bovine serum and 0.01% sodium azide). The washed cell pellets were resuspended with […] of pre-chilled 90% methanol, and incubated at 4° C. for 30 minutes. Plates were centrifuged at 300×g for 5 minutes, supernatant containing 90% methanol was aspirated, and cells were washed with […]/well of staining buffer. Cell pellets were resuspended in staining buffer containing anti-pSTAT4-AlexaFluor647 (1 to 150 dilution, […]), and incubated at room temperature in the dark overnight.
Samples were transferred to 96-well U-bottom plates and flow cytometric analysis was performed on a FACSCalibur or LSRFortessa equipped with a HTS plate loader (BD Biosciences). The lymphocyte population was gated for histogram analysis of pSTAT4. Background fluorescence was defined using unstimulated cells and a gate was placed at the foot of the peak to include ˜0.5% gated population. The histogram statistical analysis was performed using CellQuestO Pro version 5.2.1 (BD Biosciences) or FACSDiva version 6.2 (BD Biosciences) software. Relative fluorescence unit (RFU), which measures the level of phospho STAT4, was calculated by multiplying the percent positive population and its mean fluorescence. Data from 11 compound concentrations (singlicate at each concentration) was normalized as a percentage of control based on the formula: % of Control=100×(A−B)/(C−B) where A is the RFU from wells containing compound and IL-12, B is the RFU from wells without IL-12 and compound (minimum fluorescence) and C is the RFU from wells containing only IL-12 (maximum fluorescence). Inhibition curves and IC50 values were determined using the Prism version 5 software (GraphPad, La Jolla, Calif.).

JAK2 = JAK2 (Homo sapiens (Human), UniProt O60674); assay: JAK Caliper enzyme assay at 1 mM ATP (JAK2); format: biochemical; settings: recombinant human kinase domain, Caliper mobility shift
Method: as §1, §2, §3, §4, §5, §6

JAK1 = JAK1 (Homo sapiens (Human), UniProt P23458); assay: JAK Caliper enzyme assay at 1 mM ATP (JAK1); format: biochemical; settings: recombinant human kinase domain, Caliper mobility shift
Method: Compounds of the invention were evaluated by in vitro methods to determine their respective ability to inhibit the JAK kinases (TYK2, JAK1, JAK2, JAK3). The human JAK inhibitory activity was determined by using a microfluidic assay to monitor phosphorylation of a synthetic peptide by the recombinant human kinase domain of each of the four members of the JAK family, JAK1, JAK2, JAK3 and TYK2. […] Reactions were terminated by the addition of stop buffer containing EDTA. Utilizing the LabChip 3000 mobility shift technology (Caliper Life Science), each assay reaction was sampled to determine the level of phosphorylation. This technology is separation-based, allowing direct detection of fluorescently labeled substrates and products. Separations are controlled by a combination of vacuum pressure and electric field strength optimized for each peptide substrate. […] Compounds were added to a 384-well plate. […] Enzyme concentrations and incubation times were optimized for each new enzyme preps and were modified slightly over time to ensure 20% to 30% phosphorylation. […] The assay plates were placed on a Caliper Life Science LC3000 instrument, and each well was sampled using appropriate separation conditions to measure the unphosphorylated and phosphorylated peptide. The data was collected using the HTS Well Analyzer software from Caliper Life Sciences. […] The percent effect at each compound concentration was calculated based on the positive and negative control well contained within each assay plate (Equation 2). […] The percent effect was plotted against the compound concentration compound. […] Where max is the maximum asymptote (complete inhibition), min is the minimum asymptote (no inhibition) and s is the slope factor.

TYK2 = TYK2 (Homo sapiens (Human), UniProt P29597); assay: JAK Caliper enzyme assay at 1 mM ATP (TYK2); format: biochemical; settings: recombinant human kinase domain, Caliper mobility shift
Method: as §1, §2, §3, §4, §5, §6

TYK2, sequence (P29597 897-1176): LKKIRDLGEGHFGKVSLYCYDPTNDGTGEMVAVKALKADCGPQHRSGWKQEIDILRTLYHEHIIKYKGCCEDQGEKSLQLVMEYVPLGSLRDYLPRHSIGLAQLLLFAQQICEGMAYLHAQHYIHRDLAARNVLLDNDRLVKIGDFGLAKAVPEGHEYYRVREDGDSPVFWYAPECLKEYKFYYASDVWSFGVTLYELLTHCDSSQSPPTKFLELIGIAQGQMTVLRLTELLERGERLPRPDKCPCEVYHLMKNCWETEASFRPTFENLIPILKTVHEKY
JAK1, sequence (P23458 875-1153): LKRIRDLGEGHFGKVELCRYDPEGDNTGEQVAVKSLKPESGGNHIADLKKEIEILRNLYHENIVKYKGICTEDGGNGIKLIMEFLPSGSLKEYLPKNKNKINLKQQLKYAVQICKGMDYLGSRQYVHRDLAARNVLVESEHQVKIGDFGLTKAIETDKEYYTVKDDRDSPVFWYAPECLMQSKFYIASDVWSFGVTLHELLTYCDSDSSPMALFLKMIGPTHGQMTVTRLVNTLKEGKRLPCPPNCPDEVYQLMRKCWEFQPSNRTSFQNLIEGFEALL
JAK3, sequence (P52333 822-1111): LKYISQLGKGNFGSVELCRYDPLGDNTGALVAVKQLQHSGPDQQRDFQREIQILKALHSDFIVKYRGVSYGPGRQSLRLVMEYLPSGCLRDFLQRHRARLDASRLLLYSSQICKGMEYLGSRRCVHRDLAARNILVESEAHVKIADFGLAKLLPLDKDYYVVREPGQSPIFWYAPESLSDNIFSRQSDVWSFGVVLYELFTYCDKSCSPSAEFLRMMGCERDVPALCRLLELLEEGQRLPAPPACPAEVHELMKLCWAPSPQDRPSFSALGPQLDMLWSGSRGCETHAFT
JAK2, sequence (O60674 849-1124): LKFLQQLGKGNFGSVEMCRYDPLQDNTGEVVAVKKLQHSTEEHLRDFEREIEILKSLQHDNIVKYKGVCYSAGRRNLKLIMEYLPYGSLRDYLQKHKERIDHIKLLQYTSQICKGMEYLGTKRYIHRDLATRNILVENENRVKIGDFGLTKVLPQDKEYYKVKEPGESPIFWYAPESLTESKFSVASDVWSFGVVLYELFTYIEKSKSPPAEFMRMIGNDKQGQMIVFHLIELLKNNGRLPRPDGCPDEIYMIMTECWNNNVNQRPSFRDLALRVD

N#CC[C@]1(n2cc(-c3nc(-c4cc(CO)on4)cn4nccc34)cn2)C[C@@H](C#N)C1 [Example 1, (1s,3s)-3-(Cyanomethyl)-3-(4-(6-(5-(hydroxymethyl)isoxazol-3-yl)pyrazolo[1,5-a]pyrazin-4-yl)-1H-pyrazol-1-yl)cyclobutane-1-carbonitrile]
IC50 (JAK3): > 9790 nM | IC50 [1]: 162 nM | IC50 (JAK2): 40 nM

Cn1cc(-c2cn3nccc3c(-c3cnn(C4(CC#N)CN(CC#N)C4)c3)n2)cn1 [Example 7, 2,2′-(3-(4-(6-(1-Methyl-1H-pyrazol-4-yl)pyrazolo[1,5-a]pyrazin-4-yl)-1H-pyrazol-1-yl)azetidine-1,3-diyl)diacetonitrile]
IC50 (JAK3): 6680 nM | IC50 [1]: 41 nM | IC50 (JAK2): 37 nM | IC50 (JAK1): 250 nM | IC50 (TYK2): 7 nM

Cn1cc(-c2cn3nccc3c(-c3cnn([C@]4(CC#N)C[C@H](C#N)C4)c3)n2)cn1 [Example 19, (1s,3s)-3-(Cyanomethyl)-3-(4-(6-(1-methyl-1H-pyrazol-4-yl)pyrazolo[1,5-a]pyrazin-4-yl)-1H-pyrazol-1-yl)cyclobutane-1-carbonitrile]
IC50 [1]: 28 nM

Cn1cc(-c2cn3nccc3c(-c3cnn([C@]4(CC#N)C[C@@H](C#N)C4)c3)n2)cn1 [Example 20, (1r,3r)-3-(Cyanomethyl)-3-(4-(6-(1-methyl-1H-pyrazol-4-yl)pyrazolo[1,5-a]pyrazin-4-yl)-1H-pyrazol-1-yl)cyclobutane-1-carbonitrile]
IC50 [1]: 50 nM

Cc1cc(-c2cn3nccc3c(-c3cnn([C@]4(CC#N)C[C@@H](C#N)C4)c3)n2)n[nH]1 [Example 26, (1r,3r)-3-(Cyanomethyl)-3-(4-(6-(5-methyl-1H-pyrazol-3-yl)pyrazolo[1,5-a]pyrazin-4-yl)-1H-pyrazol-1-yl)cyclobutane-1-carbonitrile]
IC50 (JAK3): > 10000 nM | IC50 (JAK2): 158 nM | IC50 (JAK1): 713 nM | IC50 (TYK2): 21 nM

CO[C@H]1C[C@](CC#N)(n2cc(-c3nc(-c4cc(CO)[nH]n4)cn4nccc34)cn2)C1 [Example 28, 2-((1r,3s)-1-(4-(6-(5-(Hydroxymethyl)-1H-pyrazol-3-yl)pyrazolo[1,5-a]pyrazin-4-yl)-1H-pyrazol-1-yl)-3-methoxycyclobutyl)acetonitrile]
IC50 (JAK3): > 10000 nM | IC50 (JAK2): 249 nM | IC50 (JAK1): 1360 nM | IC50 (TYK2): 27 nM

N#CC[C@]1(n2cc(-c3nc(-c4cc(C(N)=O)no4)cn4nccc34)cn2)C[C@H](C#N)C1 [Example 29, 5-(4-(1-((1r,3r)-3-Cyano-1-(cyanomethyl)cyclobutyl)-1H-pyrazol-4-yl)pyrazolo[1,5-a]pyrazin-6-yl)isoxazole-3-carboxamide]
IC50 (JAK3): > 10000 nM | IC50 (JAK2): 3040 nM | IC50 (JAK1): 3930 nM | IC50 (TYK2): 352 nM

CO[C@H]1C[C@](CC#N)(n2cc(-c3nc(-c4cn(C)nc4CO)cn4nccc34)cn2)C1 [Example 31, 2-((1r,3s)-1-(4-(6-(3-(Hydroxymethyl)-1-methyl-1H-pyrazol-4-yl)pyrazolo[1,5-a]pyrazin-4-yl)-1H-pyrazol-1-yl)-3-methoxycyclobutyl)acetonitrile]
IC50 (JAK3): > 10000 nM | IC50 (JAK2): 324 nM | IC50 (JAK1): > 9860 nM | IC50 (TYK2): 38 nM

Cn1cc(-c2cn3nccc3c(-c3cnn([C@]4(CC#N)C[C@@H](C#N)C4)c3)n2)nn1 [Example 33, (1r,3r)-3-(Cyanomethyl)-3-(4-(6-(1-methyl-1H-1,2,3-triazol-4-yl)pyrazolo[1,5-a]pyrazin-4-yl)-1H-pyrazol-1-yl)cyclobutane-1-carbonitrile]
IC50 (JAK3): > 10000 nM | IC50 (JAK2): 444 nM | IC50 (JAK1): 8720 nM | IC50 (TYK2): 52 nM

Cn1cc(-c2cn3nccc3c(-c3cnn([C@]4(CC#N)C[C@](C)(C#N)C4)c3)n2)cn1 [Example 34, (1s,3s)-3-(Cyanomethyl)-1-methyl-3-(4-(6-(1-methyl-1H-pyrazol-4-yl)pyrazolo[1,5-a]pyrazin-4-yl)-1H-pyrazol-1-yl)cyclobutane-1-carbonitrile]
IC50 (JAK3): 3260 nM | IC50 (JAK2): 19 nM | IC50 (JAK1): 96 nM | IC50 (TYK2): 11 nM

Cn1cc(-c2cn3nccc3c(-c3cnn([C@]4(CC#N)C[C@@](C)(C#N)C4)c3)n2)cn1 [Example 35, (1r,3r)-3-(Cyanomethyl)-1-methyl-3-(4-(6-(1-methyl-1H-pyrazol-4-yl)pyrazolo[1,5-a]pyrazin-4-yl)-1H-pyrazol-1-yl)cyclobutane-1-carbonitrile]
IC50 (JAK3): > 10000 nM | IC50 (JAK2): 268 nM | IC50 (JAK1): 1920 nM | IC50 (TYK2): 136 nM

Cc1cc2c(-c3cnn([C@]4(CC#N)C[C@@H](C#N)C4)c3)nc(-c3cnn(C)c3)cn2n1 [Example 36, (1r,3r)-3-(Cyanomethyl)-3-(4-(2-methyl-6-(1-methyl-1H-pyrazol-4-yl)pyrazolo[1,5-a]pyrazin-4-yl)-1H-pyrazol-1-yl)cyclobutane-1-carbonitrile]
IC50 (JAK3): > 10000 nM | IC50 (JAK2): 755 nM | IC50 (JAK1): 3520 nM | IC50 (TYK2): 1600 nM

Cn1cc(-c2cn3nccc3c(-c3cnn([C@]4(CC#N)C[C@@H](C#N)C4)c3)n2)c(=O)[nH]1 [Example 37, (1r,3r)-3-(Cyanomethyl)-3-(4-(6-(1-methyl-3-oxo-2,3-dihydro-1H-pyrazol-4-yl)pyrazolo[1,5-a]pyrazin-4-yl)-1H-pyrazol-1-yl)cyclobutane-1-carbonitrile]
IC50 (JAK3): > 10000 nM | IC50 (JAK2): 166 nM | IC50 (JAK1): 3490 nM | IC50 (TYK2): 32 nM
